From EP2664616A1, “Hydantoin and thiohydantoin derivatives as antiviral drugs” (priority 2012, dated 2013)

Each molecule was assayed on HCV replicon Luc Neo ET (assay: HCV replication inhibition assay (replicon assay, luciferase reporter)). Conditions: Hepatitis C virus; Huh-7 cell lines containing HCV replicon Luc Neo ET; 72 hours with compound; 1 % DMSO; firefly luciferase reporter; concentration that produces 50 % of replication inhibition; read-out: EC50 Replicon LucneoET.
Type: cell-based
Experimental: The compounds according to the present invention were tested for their ability to inhibit HCV replication as follows:
Huh-7 cell lines containing HCV replicon Luc Neo ET (Reblikon) were maintained in DMEM supplemented with 10% SVF, 2 mM glutamine, and 1 X NEAA, 100 U / ml penicillin, and 100 µg / ml streptomycine. Cells were maintained in medium supplemented with 0.5 mg/ml G418, at 37°C and 5% CO2 in a humidified atmosphere. Cells were dissociated at sub confluence with trypsin EDTA 1X.
Replicon Luc Neo ET is bicistronic expression constructs (Lohmann et al, 1999, Science 285, 110-113). In brief, the structural genes of the HCV genome were replaced by heterologous sequences; the gene encoding the neomycin phosphotransferase (NPT) and the internal ribosome entry site (IRES) of the encephalomyocarditis virus (EMCV). The bicistronic construct is therefore composed of the following elements: HCV-IRES nucleotides 1-389 for Luc Neo ET, the NPT gene, the EMCV-IRES directing translation of downstream HCV sequences from NS2 or NS3 up to the authentic 3' end of the genome. HCV Polyprotein of Luc Neo ET replicon harbours the cell culture adaptive mutations E1202G, T1280I, K1846T. G418-resistance is only possible with cells containing high amounts of replicon.
Cells were dissociated the day before addition of compounds and seeded in 96 well-plates at a final concentration of 27 777.77 cells.ml^-1.cm^-2 in 90µl final volume of culture medium per well and were maintained at 37°C and 5% CO2 in a humidified atmosphere for 24 hours. 10 µl of compounds to be tested were added 24 hours after seeding. Final concentration of DMSO was 1 %. Cells were incubated in the presence of compounds for 72 hours after which expression of firefly luciferase reporter gene was quantified. Briefly, culture medium was removed and cells were lysed by addition of 100 µl of lysis buffer containing 125 mM Tris Phosphate ph 7.8, 10 mM EDTA, 5 mM DTT, 50 % glycerol and 5 % Triton. Plates were vortexed 10 min at 1300 rpm. 100µl of luciferin solution 1X were added to each well. Luciferin solution contained 40 mM Tris Phosphate ph 7.8, 0.2 mM EDTA, 67 mM DTT, 2.14 mM MgCl2, 5.4 mM MgSO4, 4.7 x 10^-4 M luciferin, 5.3 x 10^-4 M ATP and 2.7 x 10^-4 M Acetyl co enzyme A. Luminescence was immediately measured with Berthold Microlumat Plus LB 96V luminometer with an integration of 1 sec. Inhibition was calculated using the formula: % inhibition = 1-[(RLUsample-RLUbackground)/(RLUsignal-RLUbackground)].
The Table 1 below illustrates data on the biological activity of compounds of the present invention. Results are expressed as EC50 which is the concentration that produces 50 % of replication inhibition. Table 1. HCV replication inhibition assay

Compound	EC50 [nM]
CN(C)c1ccc(NC(=O)CC2C(=O)N(c3ccc(F)cc3)C(=S)N2CCc2cccs2)cc1 (stereo not shown) [Example 48, N-[4-(dimethylamino)phenyl]-2-[1-(4-fluorophenyl)-5-oxo-2-sulfanylidene-3-[2-(thiophen-2-yl)ethyl]imidazolidin-4-yl]acetamide]	< 500
CN(C)c1ccc(CCN2C(=O)N(c3ccc(F)cc3)C(=O)C2CC(=O)Nc2ccc(N(C)C)cc2)cc1 (stereo not shown) [Example 49, N-[4-(dimethylamino)phenyl]-2-(3-{2-[4-(dimethylamino)phenyl]ethyl}-1-(4-fluorophenyl)-2,5-dioxoimidazolidin-4-yl)acetamide]	< 500
COc1ccc(CCN2C(=S)N(c3ccccc3)C(=O)C2CC(=O)Nc2ccc(N(C)C)cc2)cc1 (stereo not shown) [Example 51, N-[4-(dimethylamino)phenyl]-2-{3-[2-(4-methoxyphenyl)ethyl]-5-oxo-1-phenyl-2-sulfanylideneimidazolidin-4-yl}acetamide]	< 500
COc1ccc(NC(=O)CC2C(=O)N(c3ccc(F)cc3)C(=S)N2CCc2ccc(N3CCOCC3)cc2)cc1 (stereo not shown) [Example 52, 2-[1-(4-fluorophenyl)-3-{2-[4-(morpholin-4-yl)phenyl]ethyl}-5-oxo-2-sulfanylideneimidazolidin-4-yl]-N-(4-methoxyphenyl)acetamide]	< 500
COCCOc1ccc(NC(=O)CC2C(=O)N(c3ccc(F)cc3)C(=S)N2CCc2ccc(OC)cc2)cc1 (stereo not shown) [Example 53, 2-[1-(4-fluorophenyl)-3-[2-(4-methoxyphenyl)ethyl]-5-oxo-2-sulfanylideneimidazolidin-4-yl]-N-[4-(2-methoxyethoxy)phenyl]acetamide]	< 500
COc1ccc(CCN2C(=S)N(c3ccc(F)cc3)C(=O)C2CC(=O)Nc2ccc(OC(C)C)cc2)cc1 (stereo not shown) [Example 54, 2-[1-(4-fluorophenyl)-3-[2-(4-methoxyphenyl)ethyl]-5-oxo-2-sulfanylideneimidazolidin-4-yl]-N-[4-(propan-2-yloxy)phenyl]acetamide]	< 500
COc1ccc(CCN2C(=S)N(c3ccncc3)C(=O)C2CC(=O)Nc2ccc(OC)cc2)cc1 (stereo not shown) [Example 55, N-(4-methoxyphenyl)-2-{3-[2-(4-methoxyphenyl)ethyl]-5-oxo-1-(pyridin-4-yl)-2-sulfanylideneimidazolidin-4-yl}acetamide]	< 5000
O=C(CC1C(=O)N(c2ccccc2)C(=S)N1CCc1ccc(Cl)cc1)Nc1ccccn1 (stereo not shown) [Example 57, 2-{3-[2-(4-chlorophenyl)ethyl]-5-oxo-1-phenyl-2-sulfanylideneimidazolidin-4-yl}-N-(pyridin-2-yl)acetamide]	< 500
COc1ccc(NC(=O)CC2C(=O)N(c3ccccc3)C(=S)N2CCc2ccc(Cl)cc2)cn1 (stereo not shown) [Example 59, 2-{3-[2-(4-chlorophenyl)ethyl]-5-oxo-1-phenyl-2-sulfanylideneimidazolidin-4-yl}-N-(6-methoxypyridin-3-yl)acetamide]	< 5000
COc1ccc(NC(=O)CC2C(=O)N(c3ccccc3)C(=S)N2CCc2ccc(Cl)cc2)nc1 (stereo not shown) [Example 61, 2-{3-[2-(4-chlorophenyl)ethyl]-5-oxo-1-phenyl-2-sulfanylideneimidazolidin-4-yl}-N-(5-methoxypyridin-2-yl)acetamide]	< 500
O=C(CC1C(=O)N(c2ccccc2)C(=S)N1CCc1ccc(Cl)cc1)Nc1ccon1 (stereo not shown) [Example 64, 2-{3-[2-(4-chlorophenyl)ethyl]-5-oxo-1-phenyl-2-sulfanylideneimidazolidin-4-yl}-N-(1,2-oxazol-3-yl)acetamide]	< 5000
COc1ccc(NC(=O)CC2C(=O)N(c3ccc(F)cc3)C(=S)N2CCc2ccc(Cl)cc2)nc1 (stereo not shown) [Example 66, 2-{3-[2-(4-chlorophenyl)ethyl]-1-(4-fluorophenyl)-5-oxo-2-sulfanylideneimidazolidin-4-yl}-N-(5-methoxypyridin-2-yl)acetamide]	< 500
COc1ccc(CCN2C(=S)N(c3ccccc3)C(=O)C2CC(=O)Nc2ccc(C)nn2)cc1 (stereo not shown) [Example 68, 2-{3-[2-(4-methoxyphenyl)ethyl]-5-oxo-1-phenyl-2-sulfanylideneimidazolidin-4-yl}-N-(6-methylpyridazin-3-yl)acetamide]	< 30000
COc1ccc(CCN2C(=S)N(c3ccccc3)C(=O)C2CC(=O)Nc2ccc(OC)nn2)cc1 (stereo not shown) [Example 69, 2-{3-[2-(4-methoxyphenyl)ethyl]-5-oxo-1-phenyl-2-sulfanylideneimidazolidin-4-yl}-N-(6-methoxypyridazin-3-yl)acetamide]	< 5000
COc1ccc(CCN2C(=O)N(c3ccc(F)cc3)C(=O)C2CC(=O)Nc2ccc(OC)nn2)cc1 (stereo not shown) [Example 71, 2-[1-(4-fluorophenyl)-3-[2-(4-methoxyphenyl)ethyl]-2,5-dioxoimidazolidin-4-yl]-N-(6-methoxypyridazin-3-yl)acetamide]	< 30000
COc1ccc(CCN2C(=O)N(c3ccc(F)cc3)C(=O)C2CC(=O)Nc2ccc(OC)cn2)cc1 (stereo not shown) [Example 72, 2-[1-(4-fluorophenyl)-3-[2-(4-methoxyphenyl)ethyl]-2,5-dioxoimidazolidin-4-yl]-N-(5-methoxypyridin-2-yl)acetamide]	< 5000
COc1ccc(CCN2C(=O)N(c3ccc(F)cc3)C(=O)C2CC(=O)Nc2ccc(N(C)C)cn2)cc1 (stereo not shown) [Example 73, N-[5-(dimethylamino)pyridin-2-yl]-2-[1-(4-fluorophenyl)-3-[2-(4-methoxyphenyl)ethyl]-2,5-dioxoimidazolidin-4-yl]acetamide]	< 500
COc1ccc(CCN2C(=O)N(c3ccc(F)cc3)C(=O)C2CC(=O)Nc2ccc(C)nn2)cc1 (stereo not shown) [Example 74, 2-[1-(4-fluorophenyl)-3-[2-(4-methoxyphenyl)ethyl]-2,5-dioxoimidazolidin-4-yl]-N-(6-methylpyridazin-3-yl)acetamide]	< 30000
COc1ncc(NC(=O)CC2C(=O)N(c3ccc(F)cc3)C(=O)N2CCc2ccc(N(C)C)cc2)cn1 (stereo not shown) [Example 78, 2-(3-{2-[4-(dimethylamino)phenyl]ethyl}-1-(4-fluorophenyl)-2,5-dioxoimidazolidin-4-yl)-N-(2-methoxypyrimidin-5-yl)acetamide]	< 30000
COc1ncc(NC(=O)CC2C(=O)N(c3ccc(F)cc3)C(=S)N2CCc2ccc(N(C)C)cc2)cn1 (stereo not shown) [Example 79, 2-(3-{2-[4-(dimethylamino)phenyl]ethyl}-1-(4-fluorophenyl)-5-oxo-2-sulfanylideneimidazolidin-4-yl)-N-(2-methoxypyrimidin-5-yl)acetamide]	< 5000
COc1ccc(CCN2C(=S)N(c3ccc(F)cc3)C(=O)C2CC(=O)Nc2cnc(OC)nc2)cc1 (stereo not shown) [Example 82, 2-[1-(4-fluorophenyl)-3-[2-(4-methoxyphenyl)ethyl]-5-oxo-2-sulfanylideneimidazolidin-4-yl]-N-(2-methoxypyrimidin-5-yl)acetamide]	< 5000
COc1ccc(CCN2C(=S)N(c3ccc(F)cc3)C(=O)C2CC(=O)Nc2ccc(OC)cn2)cc1 (stereo not shown) [Example 83, 2-[1-(4-fluorophenyl)-3-[2-(4-methoxyphenyl)ethyl]-5-oxo-2-sulfanylideneimidazolidin-4-yl]-N-(5-methoxypyridin-2-yl)acetamide]	< 500
COc1ccc(CCN2C(=S)N(c3ccc(F)cc3)C(=O)C2CC(=O)Nc2ncc(OC)cn2)cc1 (stereo not shown) [Example 84, 2-[1-(4-fluorophenyl)-3-[2-(4-methoxyphenyl)ethyl]-5-oxo-2-sulfanylideneimidazolidin-4-yl]-N-(5-methoxypyrimidin-2-yl)acetamide]	< 500
COc1ccc(CCN2C(=S)N(c3ccc(F)cc3)C(=O)C2CC(=O)Nc2ccc(OC)cc2F)cc1 (stereo not shown) [Example 85, N-(2-fluoro-4-methoxyphenyl)-2-[1-(4-fluorophenyl)-3-[2-(4-methoxyphenyl)ethyl]-5-oxo-2-sulfanylideneimidazolidin-4-yl]acetamide]	< 500
COc1ccc(CCN2C(=S)N(c3ccc(F)cc3)C(=O)C2CC(=O)Oc2ccc(OC)cc2)cc1 (stereo not shown) [Example 86, 4-methoxyphenyl 2-[1-(4-fluorophenyl)-3-[2-(4-methoxyphenyl)ethyl]-5-oxo-2-sulfanylideneimidazolidin-4-yl]acetate]	< 30000
